Data on ten molecules can be found in patent US8106055B2, “Substituted amide compounds” (Gruenenthal GmbH, priority 2007, dated 2012).

The target of test [1] is T1, bradykinin 1 receptor (B1R) of the rat (Rattus norvegicus, UniProt P97583).
T1 construct: expressed in transfected cells; host or cells: CHO K1 cells
T1 sequence (P97583 1-337): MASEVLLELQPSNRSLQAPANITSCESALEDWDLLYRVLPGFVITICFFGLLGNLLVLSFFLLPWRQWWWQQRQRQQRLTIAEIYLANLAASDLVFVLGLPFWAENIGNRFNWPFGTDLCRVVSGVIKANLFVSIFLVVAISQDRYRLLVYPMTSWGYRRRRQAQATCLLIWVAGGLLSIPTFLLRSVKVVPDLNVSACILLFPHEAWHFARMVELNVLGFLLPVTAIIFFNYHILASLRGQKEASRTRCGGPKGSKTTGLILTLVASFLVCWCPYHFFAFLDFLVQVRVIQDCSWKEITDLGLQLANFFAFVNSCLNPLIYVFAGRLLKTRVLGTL
Description: Functional investigation on the rat bradykinin 1 receptor (B1R), Ca2+ FLIPR assay in CHO K1 rB1R cells. The format is cell-based. The note with it: test substance 10 μM, Ca2+ FLIPR, CHO K1 rB1R cells; for B1R Ant. r [10 μM] % Inhibition: B1R antagonism rat. The method, boiled down: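 Peak Ca2+-dependent fluorescence in B1R-transfected CHO K1 cells measures antagonism of an EC80 agonist challenge given 10-20 min after compound. Agonist is Lys-Des-Arg9-bradykinin for human, Des-Arg9-bradykinin for rat receptor.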

Test [2] concerns the target T2, serotonin (5-HT) reuptake (Rattus norvegicus, UniProt P31652).
T2 construct: synaptosomes are freshly isolated from areas of the rat brain; from tissue; host or cells: rat brain synaptosomes (P2 fraction)
Description: Inhibition of serotonin (5HT) reuptake in synaptosomes from rat brain. The note with it: for 5-HT (inhibition of reuptake of serotonin, % inhibition): test concentration of 10 μM. The format is biochemical. The method, boiled down: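 Compounds screened at 10 μM and reported as percent inhibition of serotonin uptake. Uptake measured in a freshly prepared P2 synaptosomal fraction from rat brain.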

T2 sequence (P31652 whole entry): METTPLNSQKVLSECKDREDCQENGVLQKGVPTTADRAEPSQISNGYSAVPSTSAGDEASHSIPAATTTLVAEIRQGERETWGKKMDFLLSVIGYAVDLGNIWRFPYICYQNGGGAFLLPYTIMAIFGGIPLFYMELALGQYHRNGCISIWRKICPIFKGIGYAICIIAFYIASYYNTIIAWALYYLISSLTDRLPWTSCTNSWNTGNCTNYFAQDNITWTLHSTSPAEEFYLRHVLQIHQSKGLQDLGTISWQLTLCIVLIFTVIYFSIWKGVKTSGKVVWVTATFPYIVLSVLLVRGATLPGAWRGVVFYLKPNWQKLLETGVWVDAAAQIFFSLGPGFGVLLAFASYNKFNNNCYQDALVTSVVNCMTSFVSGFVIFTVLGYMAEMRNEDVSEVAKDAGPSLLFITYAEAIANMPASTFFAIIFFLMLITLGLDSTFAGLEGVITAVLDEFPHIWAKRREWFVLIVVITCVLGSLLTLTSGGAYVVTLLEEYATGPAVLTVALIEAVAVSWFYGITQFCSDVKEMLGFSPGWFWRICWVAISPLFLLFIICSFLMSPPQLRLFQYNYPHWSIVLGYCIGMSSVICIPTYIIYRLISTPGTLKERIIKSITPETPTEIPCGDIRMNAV

For the molecule `COc1ccc(S(=O)(=O)N2CCC(OCC(=O)NCCC3CCC(C(c4cccc(F)c4)N(C)C)CC3)C2)cc1OC` (centres unmarked) [Example 262], the “B1R Ant. r [10 μM] % Inhibition” value in test [1] is 36%. For the same molecule, in test [2], the “5-HT (inhibition of reuptake of serotonin, % inhibition)” value is listed as 90%.
On the same counts, the results for `CN(C)C(c1ccccc1)C1CCC(CNC(=O)COCC2CCCN(S(=O)(=O)c3ccccc3)C2)CC1` (centres unmarked) [Example 129, N((4((dimethylamino)(phenyl)methyl)cyclohexyl)methyl)-2-((1-(phenylsulfonyl)piperidin-3-yl)methoxy)acetamide] are 0% and 95%.
As for `O=C(COCCN(C1CC1)S(=O)(=O)c1c(Cl)cc(Cl)cc1Cl)NC1CCC(C(c2ccccc2)N2CCCC2)CC1` (centres unmarked) [Example 603, 2-{2-[cyclopropyl-(2,4,6-trichlorobenzenesulfonyl)-amino]-ethoxy}-N-[4-(phenylpyrrolidin-1-ylmethyl)-cyclohexyl]-acetamide], the inhibition at 10 µM in test [1] (CHO-K1, B1R antagonism rat, read-out: B1R Ant. r [10 μM] % Inhibition) came to 85%; in test [2] (Table 2, test concentration 10 μM, read-out: 5-HT reuptake) it was 74%.
With `CN(C)C(c1ccccc1)C1CCC(NC(=O)COCC2CCCN2S(=O)(=O)c2c(Cl)cc(Cl)cc2Cl)CC1` (centres unmarked) [Example 612, N-[4-(Dimethylaminophenylmethyl)-cyclohexyl]-2-[1-(2,4,6-trichlorobenzenesulfonyl)-pyrrolidin-2-ylmethoxy]-acetamide], the “B1R Ant. r [10 μM] % Inhibition” value in test [1] is given as 64%. Also, the 5-HT reuptake in test [2] (Table 2, test concentration 10 μM) stood at 84 % inhibition.
As for `COc1cc(C)c(S(=O)(=O)N2CCC(OCC(=O)NCC3CCC(C(c4cccc(F)c4)N(C)C)CC3)C2)c(C)c1` (centres unmarked) [Example 265], the “B1R Ant. r [10 μM] % Inhibition” value in test [1] turned out to be 97%. Moreover, the “5-HT (inhibition of reuptake of serotonin, % inhibition)” value in test [2] came to 95%.
On the same counts, the results for `CN(C)C(c1ccc(F)cc1)C1CCC(CNC(=O)COCCN(C)S(=O)(=O)c2ccc(Cl)cc2Cl)CC1` (centres unmarked) [Example 249] are 55% and 95%.
On to `COc1cc(C)c(S(=O)(=O)N2CCCC(OCC(=O)NCCC3CCC(C(c4cccc(F)c4)N(C)C)CC3)C2)c(C)c1C` (centres unmarked) [Example 221], for which the “B1R Ant. r [10 μM] % Inhibition” value in test [1] is 17%. The “5-HT (inhibition of reuptake of serotonin, % inhibition)” value in test [2] is recorded as 95%.
Consider `COc1ccc(S(=O)(=O)N2CCC(OCC(=O)NCC3CCC(C(c4ccc(Cl)cc4)N(C)C)CC3)C2)cc1OC` (centres unmarked) [Example 260], for which the “B1R Ant. r [10 μM] % Inhibition” value in test [1] is 9%. In addition, the “5-HT (inhibition of reuptake of serotonin, % inhibition)” value in test [2] is 88%.
On the same counts, the results for `COc1ccc(S(=O)(=O)N(C)CCOCC(=O)NC2CCC(C(c3cccc(F)c3)N(C)C)CC2)cc1` (centres unmarked) [Example 250] are 38% and 84%.
On the same counts, the results for `COc1cc(C)c(S(=O)(=O)N(CCOCC(=O)NCCC2CCC(C(c3cccs3)N(C)C)CC2)Cc2ccccc2)c(C)c1C` (centres unmarked) [Example 254] are −1% and 94%.
